# Measured values published in ChEMBL document CHEMBL3880421, “Indazole compounds and pharmaceutical compositions for inhibiting protein kinases, and methods for their use” (2003).
# Columns and labels:
# [1] = test system: Rattus norvegicus; assay: Antivascular activity in rat model of retinopathy assessed as vessel regression in retina at 5 mg/ml, administered intravitreally on postnatal day 8 measured after 6 days by ADPase-staining based histochemical analysis; assay type: functional
# [2] = Terminal half life in B6 mouse at 50 mg/kg, po by UV-HPLC analysis; assay type: ADME, organism-based; conditions: in vivo; for half-life: B6, mouse, read-out: beta t1/2 (converted); for beta t1/2: mouse, BLD = below limit of detection
# [3] = Terminal half life in B6 mouse at 25 mg/kg, ip by UV-HPLC analysis; assay type: ADME, organism-based; conditions: in vivo, read-out: beta t1/2 (converted)
# [4] = target: T1, Serine/threonine-protein kinase Chk1 (Homo sapiens) (UniProt O14757); assay: Inhibition of full length human C-terminal 6His-tagged CHK1 expressed in baculovirus/insect expression system assessed as reduction in NADH oxidation at 50 uM using Syntide2 as substrate by pyruvate kinase/lactate dehydrogenase coupled assay
# T1 sequence (whole entry): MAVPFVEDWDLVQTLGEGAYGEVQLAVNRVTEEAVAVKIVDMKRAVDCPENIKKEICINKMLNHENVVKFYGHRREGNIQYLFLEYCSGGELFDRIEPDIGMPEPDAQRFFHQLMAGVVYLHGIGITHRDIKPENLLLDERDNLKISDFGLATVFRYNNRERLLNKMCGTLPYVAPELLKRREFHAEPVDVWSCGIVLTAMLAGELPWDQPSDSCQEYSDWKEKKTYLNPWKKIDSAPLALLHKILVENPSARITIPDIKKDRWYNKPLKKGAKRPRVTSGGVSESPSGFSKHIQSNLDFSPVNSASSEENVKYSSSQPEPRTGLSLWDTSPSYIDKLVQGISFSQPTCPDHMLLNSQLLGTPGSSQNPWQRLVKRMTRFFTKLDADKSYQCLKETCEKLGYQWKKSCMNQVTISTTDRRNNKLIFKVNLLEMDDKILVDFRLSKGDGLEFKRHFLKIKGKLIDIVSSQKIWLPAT
# [5] = target: T1, Serine/threonine-protein kinase Chk1 (Homo sapiens); assay: Inhibition of full length human C-terminal 6His-tagged CHK1 expressed in baculovirus/insect expression system assessed as reduction in NADH oxidation at 20 uM using Syntide2 as substrate by pyruvate kinase/lactate dehydrogenase coupled assay
# [6] = test system: Vascular endothelial growth factor receptor 2 (Homo sapiens), P35968 [E990V]; conditions: at 50 nM
# Chain of Vascular endothelial growth factor receptor 2 (Homo sapiens), P35968 [E990V] (P35968 whole entry E990V): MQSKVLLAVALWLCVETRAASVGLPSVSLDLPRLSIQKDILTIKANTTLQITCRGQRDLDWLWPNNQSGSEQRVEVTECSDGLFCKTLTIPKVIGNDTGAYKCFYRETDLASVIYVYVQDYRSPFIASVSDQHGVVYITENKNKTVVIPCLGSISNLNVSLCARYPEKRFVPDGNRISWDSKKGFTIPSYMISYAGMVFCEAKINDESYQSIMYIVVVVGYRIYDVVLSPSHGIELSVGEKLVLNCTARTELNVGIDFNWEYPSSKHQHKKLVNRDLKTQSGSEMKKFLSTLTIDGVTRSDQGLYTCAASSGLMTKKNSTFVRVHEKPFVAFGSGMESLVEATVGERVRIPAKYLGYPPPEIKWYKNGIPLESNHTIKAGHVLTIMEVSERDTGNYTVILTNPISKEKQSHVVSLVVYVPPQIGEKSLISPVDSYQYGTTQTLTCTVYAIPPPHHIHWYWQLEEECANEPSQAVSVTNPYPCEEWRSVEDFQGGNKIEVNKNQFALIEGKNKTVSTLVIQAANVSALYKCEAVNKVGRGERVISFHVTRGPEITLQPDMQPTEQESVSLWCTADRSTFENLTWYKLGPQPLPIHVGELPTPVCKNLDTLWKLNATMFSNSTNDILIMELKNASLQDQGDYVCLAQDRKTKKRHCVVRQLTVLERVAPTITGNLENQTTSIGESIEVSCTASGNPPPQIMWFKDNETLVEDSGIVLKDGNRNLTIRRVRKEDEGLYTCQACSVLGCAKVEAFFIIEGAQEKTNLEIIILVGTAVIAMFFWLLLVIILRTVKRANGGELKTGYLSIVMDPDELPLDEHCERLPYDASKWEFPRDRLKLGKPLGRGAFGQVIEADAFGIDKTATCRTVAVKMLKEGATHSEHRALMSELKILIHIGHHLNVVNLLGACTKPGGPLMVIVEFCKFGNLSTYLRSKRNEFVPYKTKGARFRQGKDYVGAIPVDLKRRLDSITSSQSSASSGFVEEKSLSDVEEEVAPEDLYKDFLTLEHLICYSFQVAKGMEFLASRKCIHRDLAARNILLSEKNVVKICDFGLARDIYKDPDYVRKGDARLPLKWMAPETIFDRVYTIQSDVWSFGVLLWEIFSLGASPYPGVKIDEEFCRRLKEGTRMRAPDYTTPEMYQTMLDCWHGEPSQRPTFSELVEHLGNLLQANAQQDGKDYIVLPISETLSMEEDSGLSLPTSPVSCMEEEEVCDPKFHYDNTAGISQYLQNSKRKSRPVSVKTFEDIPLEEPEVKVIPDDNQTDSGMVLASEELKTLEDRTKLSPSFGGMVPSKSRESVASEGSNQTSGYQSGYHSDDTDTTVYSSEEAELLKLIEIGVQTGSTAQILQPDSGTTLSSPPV
# [7] = Terminal half life in B6 mouse at 25 mg/kg, po by UV-HPLC analysis; assay type: ADME, organism-based; conditions: B6, mouse, in vivo, read-out: beta t1/2 (converted)
# [8] = test system: Rattus norvegicus; assay: Antivascular activity in rat model of retinopathy assessed as vessel regression in retina at 5 mg/ml, administered intravitreally measured after 6 days by ADPase-staining based histochemical analysis; assay type: functional
# [9] = Terminal half life in B6 mouse at 10 mg/kg, po by UV-HPLC analysis; assay type: ADME, organism-based; conditions: in vivo, read-out: beta t1/2 (converted)
# [10] = Cmax in B6 mouse at 25 mg/kg, po by UV-HPLC analysis; assay type: ADME, organism-based; design: dose 25 mg/kg, route oral; conditions: B6, mouse, in vivo
# [11] = target: Cyclin-dependent kinase 1 (Homo sapiens) (UniProt P06493); assay: Inhibition of CDK1 (unknown origin) at 1 uM
# Chain of Cyclin-dependent kinase 1 (Homo sapiens) (P06493 whole entry, looked up): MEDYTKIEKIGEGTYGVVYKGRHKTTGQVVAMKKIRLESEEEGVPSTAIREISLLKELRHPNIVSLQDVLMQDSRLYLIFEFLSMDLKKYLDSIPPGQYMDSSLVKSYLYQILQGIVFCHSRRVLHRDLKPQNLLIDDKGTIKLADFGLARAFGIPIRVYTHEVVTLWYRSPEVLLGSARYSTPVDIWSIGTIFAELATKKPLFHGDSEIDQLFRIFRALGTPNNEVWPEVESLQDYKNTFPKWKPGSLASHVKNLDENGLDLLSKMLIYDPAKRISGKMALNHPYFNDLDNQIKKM
# [12] = AUClast in B6 mouse at 50 mg/kg, po by UV-HPLC analysis; assay type: ADME, organism-based; design: dose 50 mg/kg, route oral, time 0 - last; conditions: in vivo
# [13] = test system: Focal adhesion kinase 1 (Homo sapiens), Q05397 [P410T]; assay: Inhibition of human FAK P410T mutant expressed in baculovirus expression system at 10 uM using poly Glu-Tyr (4:1) as substrate by fluorescence polarization method
# Chain of Focal adhesion kinase 1 (Homo sapiens), Q05397 [P410T] (Q05397 whole entry P410T): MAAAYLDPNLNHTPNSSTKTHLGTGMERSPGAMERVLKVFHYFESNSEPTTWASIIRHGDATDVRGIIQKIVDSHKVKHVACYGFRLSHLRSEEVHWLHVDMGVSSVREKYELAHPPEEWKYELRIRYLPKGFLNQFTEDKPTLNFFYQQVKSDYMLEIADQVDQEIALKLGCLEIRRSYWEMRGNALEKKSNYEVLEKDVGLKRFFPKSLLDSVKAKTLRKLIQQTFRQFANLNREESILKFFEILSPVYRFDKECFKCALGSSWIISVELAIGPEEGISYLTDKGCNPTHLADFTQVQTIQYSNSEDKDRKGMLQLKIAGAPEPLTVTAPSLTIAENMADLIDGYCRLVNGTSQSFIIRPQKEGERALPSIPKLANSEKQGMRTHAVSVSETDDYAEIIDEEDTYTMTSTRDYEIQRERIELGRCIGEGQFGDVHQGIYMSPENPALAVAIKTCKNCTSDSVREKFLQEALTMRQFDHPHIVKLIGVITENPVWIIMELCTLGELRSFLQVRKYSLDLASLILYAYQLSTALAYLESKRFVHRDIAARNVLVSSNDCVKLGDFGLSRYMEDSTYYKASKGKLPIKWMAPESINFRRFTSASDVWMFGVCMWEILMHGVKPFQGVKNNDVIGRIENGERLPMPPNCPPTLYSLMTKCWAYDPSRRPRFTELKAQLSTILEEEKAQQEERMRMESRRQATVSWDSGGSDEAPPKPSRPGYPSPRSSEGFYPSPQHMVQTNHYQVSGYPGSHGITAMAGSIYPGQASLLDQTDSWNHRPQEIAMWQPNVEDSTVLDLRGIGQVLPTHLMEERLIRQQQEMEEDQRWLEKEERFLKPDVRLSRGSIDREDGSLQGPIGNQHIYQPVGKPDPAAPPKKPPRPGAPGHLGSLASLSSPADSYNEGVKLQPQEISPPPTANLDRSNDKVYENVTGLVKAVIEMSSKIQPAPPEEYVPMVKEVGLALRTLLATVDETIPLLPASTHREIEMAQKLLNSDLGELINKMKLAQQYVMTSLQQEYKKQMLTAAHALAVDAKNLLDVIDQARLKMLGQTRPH
# [14] = Metabolic stability in human liver microsomes assessed as compound remaining at 5 uM measured after 2 hrs in presence of NADPH-regenerating system by LC-UV/MS analysis; assay type: ADME; conditions: read-out: Stability
# [15] = Antiproliferative activity against VEGF-stimulated HUVEC cells assessed as reduction in cell viability at 10 nM preincubated for 1 hr followed by addition of VEGF measured after 72 hrs by MTT assay; assay type: functional; conditions: Homo sapiens
SMILES,half-life [2] [h],half-life [3] [h],further results
CCn1nc(C)cc1C(=O)Nc1cccc(C(=O)c2ccc3c(/C=C/c4ccccn4)n[nH]c3c2)c1,3.4,2.9,Activity [1]: >=25 - 75%
CC(C)NC(=O)c1ccccc1Sc1ccc2c(/C=C/c3ccccn3)n[nH]c2c1,0.8,0.8,
O=C(NCc1ccccc1F)c1ccccc1Sc1ccc2c(/C=C/c3ccccn3)n[nH]c2c1,3.6,3.8,
O=C(c1cccc(NC(=O)C2C[C@H]2c2ccccc2)c1)c1ccc2c(/C=C/c3ccccn3)n[nH]c2c1 (mixture of isomers),0.5,3.1,inhibition [4]: 48%
Cc1cc(C(=O)Nc2cccc(C(=O)c3ccc4c(/C=C/c5ccccn5)n[nH]c4c3)c2)on1,,,beta t1/2 [2]: Bld
CCOCCNC(=O)c1ccccc1Sc1ccc2c(/C=C/c3ccccn3)n[nH]c2c1,,1.8,
O=C(c1cccc(NC(=O)c2ccccn2)c1)c1ccc2c(/C=C/c3ccccn3)n[nH]c2c1,0.9,2.1,
O=C(Nc1cccc(Oc2ccc3c(/C=C/c4ccccn4)n[nH]c3c2)c1)c1ccccc1,,2.4,
O=C(Nc1ccccc1)c1ccccc1Sc1ccc2c(/C=C/c3ccccn3)n[nH]c2c1,3,1.2,
O=C(c1ccc2c(-c3nc4ccccc4[nH]3)n[nH]c2c1)N1CCC(CCO)CC1,,,inhibition [5]: 33%
Cn1nc(C(C)(C)C)cc1C(=O)Nc1cccc(C(=O)c2ccc3c(/C=C/c4ccccn4)n[nH]c3c2)c1,1.9,3.2,
Cc1cc(C(=O)Nc2cc(C(=O)c3ccc4c(/C=C/c5ccccn5)n[nH]c4c3)c(C)cc2C)n(C)n1,,,Activity [1]: <=25%
C#CCNC(=O)c1cccc(C(=O)c2ccc3c(/C=C/c4ccccn4)n[nH]c3c2)c1,,,inhibition [6]: 5%
O=C(NCCN1CCOCC1)c1ccc2c(-c3nc4ccccc4[nH]3)n[nH]c2c1,,,inhibition [5]: 21.7%
Cn1cccc1C(=O)NNC(=O)c1ccccc1Sc1ccc2c(/C=C/c3ccccn3)n[nH]c2c1,0.9,1.8,
O=C(Nc1cccc(C(=O)c2ccc3c(/C=N/n4cccc4)n[nH]c3c2)c1)c1ccccc1,3,2,
C=C(C)CNC(=O)c1ccccc1Sc1ccc2c(/C=C/c3ccccn3)n[nH]c2c1,,1.5,half-life [7]: 14.6 h
CC(=O)c1ccc(C(=O)Nc2cccc(C(=O)c3ccc4c(/C=C/c5ccccn5)n[nH]c4c3)c2)s1,1.6,1.6,
C[C@@H]1C[C@H]1C(=O)Nc1cccc(C(=O)c2ccc3c(/C=C/c4ccccn4)n[nH]c3c2)c1 (racemic),0.7,1.2,
CC(=O)c1cccc(C(=O)Nc2cccc(N(C)c3ccc4c(/C=C/c5ccc6c(c5)OCO6)n[nH]c4c3)c2)c1,,,Activity [8]: 36 - 37%
O=C(Nc1cccc(C(=O)c2ccc3c(/C=C/c4ccccc4)n[nH]c3c2)c1)c1ccncc1,1.2,1.6,
Cc1cc(C(=O)Nc2cccc(C(=O)c3ccc4c(/C=C/c5ccccn5)n[nH]c4c3)c2)n[nH]1,0.7,0.3,
O=C(NCC1CC1)c1ccccc1Sc1ccc2c(/C=C/c3ccccn3)n[nH]c2c1,1,0.9,
O=C(Nc1cccc(O)c1)c1ccc2c(-c3nc4ccccc4[nH]3)n[nH]c2c1,,,inhibition [5]: 57.7%
CCNC(=O)c1ccccc1Sc1ccc2c(/C=C/c3ccccn3)n[nH]c2c1,0.9,3.2,
C=CCONC(=O)c1ccccc1Sc1ccc2c(/C=C/c3ccccn3)n[nH]c2c1,4.5,1.3,
CCn1nc(C)cc1C(=O)Nc1cccc(Oc2ccc3c(/C=C/c4ccccn4)n[nH]c3c2)c1,39.3,5.3,half-life [9]: 3.1 h; half-life [7]: 1.9 h
CC(C)ONC(=O)c1ccccc1Sc1ccc2c(/C=C/c3ccccn3)n[nH]c2c1,1.1,,

SMILES,half-life [2] [h],half-life [3] [h],further results
O=C(Nc1cccc(Oc2ccc3c(/C=C/c4ccc(Cl)cc4)n[nH]c3c2)c1)c1ccccc1,,,Activity [8]: 25 - 75%
CCn1nc(C)cc1C(=O)Nc1cccc(Oc2ccc3c(/C=C/c4c[nH]cn4)n[nH]c3c2)c1,,,Cmax [10]: 179 ng/mL; half-life [7]: 2.1 h
Fc1cccc(/C=C/c2n[nH]c3cc(-c4ccncc4)ccc23)c1F,,,inhibition [11]: 7 to 31%
Cc1cc(NC(=O)c2ccc3c(-c4nc5ccccc5[nH]4)n[nH]c3c2)n[nH]1,,,inhibition [5]: 38.6%
Cc1cc(C(=O)Nc2cccc(Oc3ccc4c(/C=C/c5ccccn5)n[nH]c4c3)c2)nn1C,1,1.7,
CCn1nc(C)cc1C(=O)Nc1cccc(Oc2ccc3c(/C=C/c4ccccn4)n[nH]c3c2)c1.Cl,,,half-life [7]: 21 h
O=C(c1cccc(NC(=O)c2ccccn2)c1)c1ccc2c(/C=C/c3ccccc3)n[nH]c2c1,2.2,2.2,
O=C(Nc1cccc(C(=O)c2ccc3c(/C=C/c4ccccn4)n[nH]c3c2)c1)c1ccccc1,2,5,
Cc1ccc2cc(NC(=O)c3ccccc3Sc3ccc4c(/C=C/c5ccccn5)n[nH]c4c3)ccc2n1,3,3,
O=C(Nc1cccc(Cl)c1)c1ccccc1Sc1ccc2c(/C=C/c3ccccn3)n[nH]c2c1,0.9,1.6,
O=C(NC1CCC1)c1ccccc1Sc1ccc2c(/C=C/c3ccccn3)n[nH]c2c1,4.9,3.2,
C/C=C/C(=O)Nc1cccc(C(=O)c2ccc3c(/C=C/c4ccccn4)n[nH]c3c2)c1,2.6,1.7,Activity [1]: 25 - 75%
CCCNC(=O)c1ccccc1Sc1ccc2c(/C=C/c3ccccn3)n[nH]c2c1,0.9,1.4,
O=C(Nc1cccc(C(=O)c2ccc3c(-c4nc5cccnc5[nH]4)n[nH]c3c2)c1)c1ccccc1,,,beta t1/2 [2]: Bld
C#CCNC(=O)c1ccccc1Sc1ccc2c(/C=C/c3ccccn3)n[nH]c2c1,0.9,1.4,
O=C(c1cccc(NC(=O)c2cccc3[nH]ccc23)c1)c1ccc2c(/C=C/c3ccccn3)n[nH]c2c1,1.5,2.8,
O=C(NC1CC1)c1ccccc1Sc1ccc2c(/C=C/c3ccccn3)n[nH]c2c1,0.7,1,
CCn1nc(C)cc1C(=O)Nc1cc(Nc2ccc3c(/C=C/c4ccccn4)n[nH]c3c2)c(F)cc1C.Cl,,,AUC(0-t) [12]: 276 µg·h/mL
O=C(Nc1cccc(C(=O)c2ccc3c(-c4nc5ccccc5[nH]4)n[nH]c3c2)c1)c1ccccc1,3,3,
O=C(NCC(F)(F)F)c1ccccc1Sc1ccc2c(/C=C/c3ccccn3)n[nH]c2c1,0.7,2.4,
O=C(Nc1nccs1)c1ccccc1Sc1ccc2c(/C=C/c3ccccn3)n[nH]c2c1,1.2,1.2,
CCn1nc(C)cc1C(=O)Nc1cc(C(=O)c2ccc3c(/C=C/c4ccccn4)n[nH]c3c2)ccc1C,3.4,4,
COc1cc(-c2ccc3c(-c4cc5ccccc5[nH]4)n[nH]c3c2)ccc1O,,,inhibition [13]: 26%
O=C(Nc1cc(Nc2ccc3c(/C=C/c4ccccc4)n[nH]c3c2)ccc1F)c1ccccc1,3.4,19.9,
O=C(Nc1cccc(C(=O)c2ccc3c(/C=C/c4ccccn4)n[nH]c3c2)c1)c1ccncc1,1.1,4.7,"remaining at 2 h, 5 µM [14]: 50%"
O=C(Cn1ccc2ccccc21)Nc1cccc(Oc2ccc3c(/C=C/c4ccccc4)n[nH]c3c2)c1,,,inhibition at 0.01 µM [15]: 52%
CC(C)=NOC(C)C(=O)Nc1cccc(Nc2ccc3c(/C=C/c4ccccc4)n[nH]c3c2)c1 (configuration not stated),,,inhibition at 0.01 µM [15]: -1%
